System: female Aedes aegypti (Orlando strain, 1952)
Experiment: Minimum effective dosage testing, human skin (treated cloth patch)
Format: in vivo
Description: The test mosquitoes were female Aedes aegypti (Orlando strain, 1952) from the colony maintained at United States Department of Agriculture-Agricultural Research Service-Center for Medical, Agricultural and Veterinary Entomology (USDA-ARS-CMAVE) in Gainesville, Fla. Pupae were obtained from the colony and newly emerged mosquitoes were maintained on 10% sugar water and kept in laboratory cages at an ambient temperature of 28±1° C. and RH of 35-60%. Host seeking behavior was pre-selected in nulliparous female mosquitoes aged 6-10 days, indicated by flight upwind towards a potential host, from stock cages using a hand-draw box and trapped in a collection trap.
After 500 (±10%) females were collected in the trap, they were transferred to a test cage (approximately 59,000 cm^3 with dimensions 45×37.5×35 cm) and allowed to acclimatize for 17.5 (±2.5) min before testing was initiated. Just prior to the experiment, the pieces of treated cloth are removed from the vials and stapled onto card stock tabs (5×3 cm). Each piece of the cards and the assembly were hung on a drying rack using masking tape for 3-5 min. Participants in the study used latex gloves to pull a nylon stocking over their arm. A Velcro™-sealed vinyl sleeve was then placed over the forearm. […] The purpose of the nylon stocking was to produce a barrier between the dried cloth and the skin, thereby avoiding direct contact of chemical to skin. The dried cloth assembly was affixed over the opening in the sleeve and held in place with masking tape. Participants then inserted their arm with the sleeve and patch into a screened cage that contained female Ae. Aegypti mosquitoes. Tests were conducted on each control or treated patch for 1 min. A control patch (acetone solvent only, then dried) was tested prior to the start of experiments and evaluation of the same untreated control patch after every 10 tests. If 5 landings were not received on the control patch in 30 s, then tests were discontinued for 60 min. At the conclusion of testing the control patch was tested again. If five landings were not received within 30 s, the data for the replicate was discarded. When testing a patch treated with a candidate repellent, if approximately 1% or 5 mosquito bites were received during this one minute test, this compound was considered to have failed, i.e., was not repellent at that concentration. If a treated cloth patch received 0-4 bites within a minute, then it was considered as passed, i.e., repellent at that concentration of the test compound. The median concentration patch was tested in the first round and treated patches were then tested successively at higher or lower concentrations depending upon whether the previous patch failed or passed, respectively.
The time interval between each tested patch was <90 seconds until 10 successive tests had been conducted. If appreciable, mortality had occurred during testing, the number of knocked down mosquitoes are estimated and additional female mosquitoes are added to the cage to keep the available mosquitoes at approximately 500. The estimate of the MED was the lowest concentration that passed for each candidate. Observed MED values for each candidate compound were averaged across participants and reported as a mean MED±standard error.

[1] = treated cloth patch, 1 min test, high dose 1.5 mg/cm^2

CC(C)=CCCC(C)CC(=O)OCC(C)O (stereo not shown) [Compound 2144, 2-hydroxypropyl citronellate]
Minimum effective dosage: 0.055 mg/cm²
Proportion to DEET (average MED relative to DEET): 2.053
Minimum effective dosage testing, result in words (in vivo): performed similarly to DEET
Minimum Effective Dosage, Average (mean across subjects): 0.039 mg/cm^2
Minimum Effective Dosage, Subject 1 [1]: 0.047 mg/cm^2
Minimum Effective Dosage, Subject 2 [1]: 0.047 mg/cm^2
Minimum Effective Dosage, Subject 3 [1]: 0.023 mg/cm^2
